What all share (type): cell-based
Assay [1] concerns the target T1, Vitamin D3 receptor (Homo sapiens, UniProt P11473).
T1 sequence (P11473 whole entry): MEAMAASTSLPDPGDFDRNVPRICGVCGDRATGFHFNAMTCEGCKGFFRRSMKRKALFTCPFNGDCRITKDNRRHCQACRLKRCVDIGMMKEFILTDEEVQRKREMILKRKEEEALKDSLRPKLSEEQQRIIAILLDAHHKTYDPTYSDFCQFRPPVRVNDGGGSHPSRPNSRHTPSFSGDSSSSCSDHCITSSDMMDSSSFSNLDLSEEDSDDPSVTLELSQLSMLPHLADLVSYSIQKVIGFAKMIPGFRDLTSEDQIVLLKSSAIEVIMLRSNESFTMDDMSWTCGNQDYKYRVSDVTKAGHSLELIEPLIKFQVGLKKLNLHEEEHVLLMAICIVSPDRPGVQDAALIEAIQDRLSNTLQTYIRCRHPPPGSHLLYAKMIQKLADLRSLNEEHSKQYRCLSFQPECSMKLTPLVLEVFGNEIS
Put plainly: Agonist activity at human VDR expressed in HEK293 cells co-expressing CMX-GAL4N and TK-MH100x4-LUC assessed as induction of transcriptional activity by beta-galactosidase reporter gene assay. To be noted: for EC50: hek293; for pEC50: read-out: EC50. On the technique in general: In a reporter assay the amount or activity of a reporter protein is the signal.

In assay [2] the target is T2, Vitamin D3 receptor (Homo sapiens) (UniProt P11473).
T2 sequence (whole entry): T1 sequence (P11473 whole entry)
Description: Agonist activity at human VDR expressed in HEK293 cells co-expressing CMX-GAL4N and TK-MH100x4-LUC assessed as induction of transcriptional activity at 3 uM by beta-galactosidase reporter gene assay relative to 1alpha,25(OH)2VD3.

The target in assay [3] is T2, Vitamin D3 receptor (Homo sapiens). Description: Antagonist activity at human VDR expressed in HEK293 cells co-expressing CMX-GAL4N and TK-MH100x4-LUC assessed as inhibition of 1alpha,25(OH)2VD3-induced transcriptional activity up to 10 uM by beta-galactosidase reporter gene assay.
For assay [4] the target is unchanged. Put plainly: Agonist activity at human VDR expressed in HEK293 cells co-expressing CMX-GAL4N and TK-MH100x4-LUC assessed as induction of transcriptional activity at 10 uM by beta-galactosidase reporter gene assay relative to 1alpha,25(OH)2VD3.
Assay [5] has the same target. Put plainly: Agonist activity at VDR in human HL60 cells assessed as induction of cell differentiation at 10 uM by NBT reduction assay. The note with it: HL-60.

Structures are written as SMILES. pEC50: −log10 of the molar value. The source made the active and inactive calls. The rule behind the calls is not given here.

Regarding `CCCCCCCCOC(C)(C)[C@H](O)COc1ccc(C(CC)(CC)c2ccc(OC[C@@H](O)CO)c(C)c2)cc1C`, in assay [1], the EC50 entry was “Not Active”.

By pEC50 is commonly meant −log10 of the EC50, conventionally taken in molar units. `CCCCCCOC(C)(C)[C@H](O)COc1ccc(C(CC)(CC)c2ccc(OC[C@@H](O)CO)c(C)c2)cc1C`: the pEC50 in assay [1] was less than 5.00. The values for the Activity in assay [2] and in assay [4] were 19% and 22%, respectively. In assay [3], the inhibition entry is “inactive”.

Take `CCC(CC)(c1ccc(OC[C@@H](O)CO)c(C)c1)c1ccc(OC[C@@H](O)C(C)(C)OCCCCCCCCO)c(C)c1`: the pEC50 in assay [1] is less than 5.52. Moreover, the Activity in assay [5] came out at 18.8%; in assay [2], 40%. The inhibition entry in assay [3] is “inactive”.

Turning to `CCCCCCCCCCOC(C)(C)[C@@H](O)COc1ccc(C(CC)(CC)c2ccc(OC[C@@H](O)CO)c(C)c2)cc1C`, in assay [1], the EC50 entry is on record as “Not Active”.

As for `CCCCCCOC(C)(C)[C@@H](O)COc1ccc(C(CC)(CC)c2ccc(OC[C@@H](O)CO)c(C)c2)cc1C`, the pEC50 in assay [1] is 5.82. Also, the Activity in assay [5] amounted to 25.1%; in assay [2], 37%; in assay [4], 47%. In addition, the inhibition entry in assay [3] is “inactive”.

In the case of `CCC(CC)(c1ccc(OC[C@@H](O)CO)c(C)c1)c1ccc(OC[C@H](O)C(C)(C)OCCCCCCCCO)c(C)c1`, the pEC50 in assay [1] was 5.92. The Activity was determined as 37.6% in assay [5], 77% in assay [2] and 100% in assay [4]. Also, the inhibition entry in assay [3] was “inactive”.

With `CCCCCCCCCCOC(C)(C)[C@H](O)COc1ccc(C(CC)(CC)c2ccc(OC[C@@H](O)CO)c(C)c2)cc1C`, in assay [1], the EC50 result is recorded as “Not Active”.

As to `CCCCCCCCOC(C)(C)[C@@H](O)COc1ccc(C(CC)(CC)c2ccc(OC[C@@H](O)CO)c(C)c2)cc1C`, in assay [1], the EC50 entry is reported as “Not Active”.
